How the values were obtained:
[1] = molecular target: T1, PU.1 (Mus musculus, UniProt P17433); experiment: Luciferase assay (luminescence) in BV2 PU.1-Luciferase reporter cells; format: cell-based; conditions: luminescence reduction in BV2 PU.1-Luciferase cells, concentration-response, Hill's equation
T1 construct: endogenous in cells; host or cells: BV2 PU.1-Luciferase (mouse microglial BV2 with a 5xLBB-luciferase reporter integrated at ROSA26)

[2] = tested on: multiple cell lines; experiment: Time course of A11 efficacy after application; format: cell-based; conditions: A11 obtained from several vendors
From the text: The gene modulation was reproduced in unmodified BV2 cells and primary mouse microglia. FIG. 14B: Concentration-response curve of A11 from multiple vendors, measured as percent reduction of luminescence. Non-linear fit with Hill's equation with baseline fixed to 0. FIG. 14C: Time course for reduction of mRNA levels of luciferase and il1β as well as luminescence emission in BV2 PU.1-Luciferase cells. FIGS. 14D-14E: Time and concentration-response curve (of pHrodo-labelled particles) for uptake of pHrodo-labelled Zymosan A (FIG. 14D) and mouse myelin in (FIG. 14E) in BV2 cells (left panels, respectively in each FIGS. 14D-14E), and iPS-microglia (right panels, respectively in each FIGS. 14D-14E). FIGS.: 14F-14G: Time and concentration-response curves of A11 (FIG. 14F) and DB2313 (FIG. 14G) of Zymosan A uptake in BV2 cells. Left, middle, and right panels show 1, 2 and 3 hours after compound application, respectively. ANOVA followed by Dunnett's post hoc test versus vehicle, black bars indicate P≤0.05.

[3] = tested on: iPSC-microglia; experiment: Uptake of pHrodo-GFP-labelled mouse myelin particles in iPSC-microglia; format: cell-based, human; conditions: concentration response curve, after 48 h
Procedure: FIGS. 12A-12B show the effects of A11 on cell viability and myelin uptake after 48 h.
(§1) A concentration response curve was performed for cell viability and myelin uptake (FIG. 12A) in iPSC-microglia. Myelin uptake was measured by uptake of pHrodo-GFP-labelled wild-type mouse myelin particles (FIG. 12B). […] The IC50s obtained for these assays was in the low nM range, matching the data obtained in BV2 cells.

[4] = tested on: iPSC-microglia; experiment: Cell viability in iPSC-microglia; format: cell-based, human
Procedure: FIGS. 10A-10D show anti-inflammatory properties of A11 after IFNγ treatment on human induced pluripotent stem cell derived microglia. Cell viability is shown in FIG. 10A as measured with CellTiter Glo (Promega) in untreated (vehicle), A11 (2.5 μM) treated, IFNγ (25 ng/mL) treated and A11 +IFNγ treated cells. The morphology (round represent un-activated and elongated, filamentous represent activated by IFNγ) of these same conditions is shown in FIGS. 10B and quantified in FIG. 10C.
Human induced pluripotent stem cell derived microglia (iPSC-microglia) were activated with IFN-gamma (25 ng/mL, 3 days) and co-treated with A11 (2.5 μM, 2 days).
as §1

[5] = concentration response curve, iPSC-microglia, after 48 h

IC50 [1]: 2 nM | IC50 of myelin uptake [3]: low nM range
SMILES: O=S(=O)(NCc1ccncc1)c1ccc(C2CCCCC2)cc1 [Compound A11]
time after application at which efficacy starts [2]: 3 h | maximal possible reduction in myelin uptake [3]: 50% | cell viability (CellTiter Glo) ([4]; IFN-gamma 25 ng/mL 3 days, co-treated with A11 2.5 μM 2 days): No significant change | IC50 of cell viability [4, 5]: low nM range | reduction in cell viability [4, 5]: weak reduction

Source: patent US20220340983A1, “SYSTEMS AND ASSAYS FOR IDENTIFYING PU.1 INHIBITORS” (Massachustts Institute of Technology, priority 2019, published 2022)
